Measured values as given in patent US12460263B2, “Genetic variants for diagnosis of Alzheimer's disease” (The Hong Kong University of Science and Technology, priority 2019, dated 2025).
“Also recorded” adds a separate entry of the source.

Tests used:
[1] = system: serum sST2; assay: Trazodone treatment of mice, serum sST2 level by ELISA; format: in vivo, mouse; settings: 18 mo
Protocol: Trazodone treatment of mice: Mice were treated with Trazodone or vehicle control either by intraperitoneal (IP) injection or oral administration. For IP injection, mice were daily injected with 50 mg/kg Trazodone or vehicle (saline). For oral administration, mice were daily fed with 100 mg/kg Trazodone or vehicle (water). After the 2 days, 4 days, 7 days or 14 days of treatment, mouse blood was collected by intracardial bleed at time of sacrifice. The blood without anticoagulants was incubated at room temperature for 2 h and then centrifuged at 2,000×g for 20 min. The serum sST2 level was measured using the Mouse ST2/IL-33 R Quantikine ELISA Kit (MST200, R&D).

[2] = Association analysis of cognitive performance (MoCA score) and medication history in female AD patients; format: in vivo, human; settings: association with medication history, P=0.0202
Excerpt: (§1) Subject Recruitment for the Hong Kong Chinese AD Cohort: A cohort of Hong Kong Chinese was recruited from individuals who visited the Specialist Outpatient Department of the Prince of Wales Hospital, the Chinese University of Hong Kong. A total of 427 subjects were recruited: 233 with AD and 194 normal controls (NCs). All subjects were ≥60 years old. The clinical diagnosis of AD was established based on the American Psychiatric Association's Diagnostic and Statistical Manual of Mental Disorders, Fifth Edition (DSM-5). All subjects were given medical history assessment, cognitive and functional assessment through the Montreal Cognitive Assessment (MoCA) test, and neuroimaging assessment by MRI. Each individual's data, including age, sex, education, medical history, and cardiovascular disease history, were recorded. Individuals with any significant neurological disease or psychiatric disorder were excluded. The plasma of subjects was collected and stored at −80° C. as aliquots until use. This study was approved by the Prince of Wales Hospital, the Chinese University of Hong Kong, and the Hong Kong University of Science and Technology. All participants provided written informed consent for both study enrollment and sample collection. Absolute blood cell count was determined by complete blood count (CBC) at the Prince of Wales Hospital. […]

[3] = system: plasma sST2 protein; assay: Association analysis of plasma sST2 protein level (ELISA) and medication in Hong Kong female AD patients; format: in vivo, human; settings: female AD patients taking trazodone (n=15) vs not taking (n=149), Hong Kong Chinese AD cohort, linear regression adjusted for age and population structure, ***P<0.001
Excerpt: as §1, with “This study was approved by the Prince of Wales Hospital, the Chinese University of Hong Kong, and the Hong Kong University of Science and Technology. All participants provided written informed consent for both study enrollment and sample collection.” left out
Detection of Soluble ST2 Protein by ELISA: Human plasma and CSF soluble ST2 (sST2) protein levels were measured using the Human ST2/IL-33 R Quantikine ELISA Kit (DST200). […]

For O=c1n(CCCN2CCN(c3cccc(Cl)c3)CC2)nc2ccccn12 [Trazodone, trazodone], the “serum sST2 level” value ([1]; female APP/PS1 mice, daily 100 mg/kg oral for 7 or 14 days vs vehicle, n=5/group, 100 mg/kg) was “reduction of serum sST2 level; also recorded: down-regulates the serum sST2 level”, the “serum sST2 level” value ([1]; female wildtype mice, daily 50 mg/kg IP or 100 mg/kg oral for 2 or 4 days vs vehicle, n=2/group) was “reduction of serum sST2 level; also recorded: down-regulates the serum sST2 level” and the “cognitive performance (MoCA score)” value [2] was “altered cognitive performance”. The “plasma sST2 level” value [3] was “decreased plasma sST2 level” and the “plasma sST2 level” value ([3]; listed as trazodone) was “effective agent to lower plasma sST2 level”.
